Series [1] has as its target T1, Human NaV1.4 (Homo sapiens, UniProt P35499).
T1 construct: expressed in transfected cells
The series can be described thus: PatchXpress automated patch clamp, hyperpolarized-state protocol. The settings on record: HEK 293 cells. In kind it is cell-based. The method, then:
(§1) Sodium currents were recorded from recombinant Human Embryonic Kidney 293 cell lines stably overexpressing the respective sodium channel type (NaV1.2, 1.5, 1.4, 1.6, 1.7). Recording solutions were comprised of the following (in mM): Internal solution: 30 CsCl, 5 HEPES, 10 EGTA, 120 CsF, 5 NaF, 2 MgCl2, pH = 7.3 with CsOH; External solution 1: 40 NaCl, 120 NMDG, 1 KCl, 0.5 MgCl2, 5 HEPES, 2.7 CaCl2, pH to 7.3 with NaOH, used for NaV1.5 recordings; External solution 2: 150 NaCl, 5 KCl, 2 CaCl2, 1 MgCl2, 10 HEPES, 12 Dextrose, pH 7.3 with NaOH, used for NaV1.7, 1.6, 1.4, and 1.2 recordings.
(§2) Whole-cell currents were recorded from cells stably expressing NaV channels using the PatchXpress 7000A automated patch clamp platform (Molecular Devices, LLC; Sunnyvale, CA). A portable air-conditioning unit was installed on the PatchXpress instruments to maintain the temperature of the headstage at 21°C. Cells were voltage clamped at −60 mV for cell detection and sealing. At the start of each recording, a voltage curve and an inactivation curve was run for each cell to determine the voltage at which 50% of the channels reside in the inactivated state (V0.5 inact). The voltage curve was used to determine if the cell was adequately clamped; cells with currents larger than 10nA or with space clamp issues were not used further.
(§3) NaV1.7, NaV1.6, NaV1.4: Compound potency was measured in a hyperpolarized-state protocol where the holding potential for each cell was set to V0.5inact – 20 mV. A pulse train consisting of 7 consecutive double pulses, 8 second hypepolarizing prepulse to −120 mV followed by a test pulse to −10 mV was applied at a frequency of 0.1 Hz. First, vehicle (0.3% DMSO) was added to establish a baseline measurement. Once baseline was established, test compounds were added. Cells were exposed to compound for 5 minutes at 20 mV negative to V0.5inact then exposed to the same hyperpolarized voltage protocol. (no pulsing during compound incubation). A washout was performed to measure recovery of the sodium currents from inhibition.
(§4) Recordings were included for analysis when current amplitude reached steady-state in vehicle, compound inhibition was concentration-dependent and currents recovered during wash-out periods. Raw data from PatchXpress experiments were retrieved from the database and analyzed using the DataXpress 2 software (Molecular Devices).
(§5) At least 3 concentrations (3–9 replicates per concentration) were tested and at least one concentration had to cause 20–80% current inhibition.

Series [2] addresses T2, Human NaV1.7 (Homo sapiens, UniProt Q15858).
T2 construct: expressed in transfected cells
The description is as above. It counts as cell-based. The note with it: HEK 293 cells. How it is done: as §1, §2, §3, §4, §5

Series [3] concerns the target T3, Rat NaV1.6 (Rattus norvegicus, UniProt O88420).
T3 construct: expressed in transfected cells; host or cells: HEK cells
Described as above. In kind it is cell-based. The note with it: HEK cells, hyperpolarized protocol. How it is done:
as §1, §2, §3, §4, §5

In series [4] the test system is anesthetized male CD rats. The series can be described thus: Rat Cardiovascular/Respiratory (CV/R) assay. In kind it is in vivo. On the set-up: ∆ QRS Interval: unit not given here. How it is done: Male CD Rats were anesthetized with ketamine:xylazine (85 mg/kg:5 mg/kg, im, to effect). The left femoral artery and vein were cannulated for the measurement of blood pressure and the administration of test agent, respectively. The right femoral vein was cannulated for maintenance anesthetic infusion (ketamine:xylazine ~35 mg/kg/hr:1.5 mg/kg/hr, iv, to effect). Needle electrodes were placed subcutaneously at the right axillary and left inguinal areas to record lead II ECGs. When ECG intervals were required to determine effect on cardiac conduction a pacing/recording electrode catheter was advanced through the right jugular vein to pace the heart. ECG intervals were then measured at a fixed cardiac rate of 400 beats/minute to remove any variability of intrinsic heart rate on these parameters.
To determine the test agent-dependent effect on respiratory rate, a tracheotomy was also performed using a short length of polyethylene tubing containing a thermistor (AD Instruments). The change in temperature detected by the thermistor was used to calculate respiratory rate.
(§6) For in vivo CVR and phrenic nerve activity studies, all raw signals were amplified via general purposed biological amplifier (filter settings DC – 3-5 KhZ) then digitized, calibrated and collected at a minimum of 500 Hz (1000 Hz for ECG and 2000 Hz for cardiac electrograms, and 10 KHz for phrenic nerve activity) using Notocord-HEM data acquisition and analysis software. The raw signal was filtered following acquisition with a bandpass filter set to 200–800 Hz). Vehicle (100% dimethylformamdide, DMF) or compound formulated in the vehicle was administered as a 30-minute IV infusion at 0.0167 μL/g body weight/min. Doses were selected to achieve unbound plasma concentrations in range of measured Nav1.6 IC50 values when infused at 0.0167uL/g body weight/min based on measured rat clearance, plasma protein binding and Nav1.6 IC50. Exposure in rats was determined in separate pharmacokinetics experiments where compounds were administered via IV dosing.

Series [5] concerns phrenic nerve. The series can be described thus: Rat phrenic nerve firing assay. The note with it: rat in vivo, measured at 30 minutes. How it is done: To determine direct effects on phrenic nerve activity, male CD rats were anesthetized and instrumented as described above for the CV/R assay. In addition, an incision was made in the ventral neck area and the right phrenic nerve identified anatomically and isolated via blunt dissection. The phrenic nerve was placed over a high impedance bipolar hook electrode and the nerve covered with mineral oil to prevent desiccation. Animals were mechanically ventilated via a tracheotomy (~10 mL/kg, 40–70 breaths/min, titrated individually to stabilize phrenic activity) following neuromuscular block (pancuronium 0.5–1 mg/kg, iv) and bilateral vagotomy to better define test agent effects on phrenic nerve activity. Anesthesia was verified repeatedly following pancuronium administration by testing the BP/HR response to noxious stimuli. Spontaneous electrical activity was continuously recorded and then later rectified and averaged to calculate frequency, width, peak height of bursts, and magnitude. Magnitude of the activity was calculated by taking the absolute value of the raw signal and then averaging that signal over 50 ms increments. The resulting average signal was then converted to magnitude by subtracting the […] for each phrenic burst complex. The resulting magnitude values were then averaged over 1 minute increments to result in the graphs shown. Figure S1 in the Supplemental Information illustrates this analytical procedure.
as §6

Series [6] in a line: Plasma exposure in phrenic nerve activity assay. In kind it is in vivo. The settings on record: CD, rat, plasma, intravenous, 60 mg/kg.
Text: as §6

A short description of series [7]: Permeability (Papp, passive diffusion). In kind it is in vitro ADME.
Where [8] appears, read: rat, IV infusion, 30 mg/kg, 15 min.
Where [9] appears, read: rat, IV infusion, 30 mg/kg, 30 min.
[10] abbreviates: rat, IV infusion, 60 mg/kg, 15 min.

Molecules are shown by their SMILES. Where two headings read alike, the source gives them in different places.

T3 sequence (O88420 whole entry): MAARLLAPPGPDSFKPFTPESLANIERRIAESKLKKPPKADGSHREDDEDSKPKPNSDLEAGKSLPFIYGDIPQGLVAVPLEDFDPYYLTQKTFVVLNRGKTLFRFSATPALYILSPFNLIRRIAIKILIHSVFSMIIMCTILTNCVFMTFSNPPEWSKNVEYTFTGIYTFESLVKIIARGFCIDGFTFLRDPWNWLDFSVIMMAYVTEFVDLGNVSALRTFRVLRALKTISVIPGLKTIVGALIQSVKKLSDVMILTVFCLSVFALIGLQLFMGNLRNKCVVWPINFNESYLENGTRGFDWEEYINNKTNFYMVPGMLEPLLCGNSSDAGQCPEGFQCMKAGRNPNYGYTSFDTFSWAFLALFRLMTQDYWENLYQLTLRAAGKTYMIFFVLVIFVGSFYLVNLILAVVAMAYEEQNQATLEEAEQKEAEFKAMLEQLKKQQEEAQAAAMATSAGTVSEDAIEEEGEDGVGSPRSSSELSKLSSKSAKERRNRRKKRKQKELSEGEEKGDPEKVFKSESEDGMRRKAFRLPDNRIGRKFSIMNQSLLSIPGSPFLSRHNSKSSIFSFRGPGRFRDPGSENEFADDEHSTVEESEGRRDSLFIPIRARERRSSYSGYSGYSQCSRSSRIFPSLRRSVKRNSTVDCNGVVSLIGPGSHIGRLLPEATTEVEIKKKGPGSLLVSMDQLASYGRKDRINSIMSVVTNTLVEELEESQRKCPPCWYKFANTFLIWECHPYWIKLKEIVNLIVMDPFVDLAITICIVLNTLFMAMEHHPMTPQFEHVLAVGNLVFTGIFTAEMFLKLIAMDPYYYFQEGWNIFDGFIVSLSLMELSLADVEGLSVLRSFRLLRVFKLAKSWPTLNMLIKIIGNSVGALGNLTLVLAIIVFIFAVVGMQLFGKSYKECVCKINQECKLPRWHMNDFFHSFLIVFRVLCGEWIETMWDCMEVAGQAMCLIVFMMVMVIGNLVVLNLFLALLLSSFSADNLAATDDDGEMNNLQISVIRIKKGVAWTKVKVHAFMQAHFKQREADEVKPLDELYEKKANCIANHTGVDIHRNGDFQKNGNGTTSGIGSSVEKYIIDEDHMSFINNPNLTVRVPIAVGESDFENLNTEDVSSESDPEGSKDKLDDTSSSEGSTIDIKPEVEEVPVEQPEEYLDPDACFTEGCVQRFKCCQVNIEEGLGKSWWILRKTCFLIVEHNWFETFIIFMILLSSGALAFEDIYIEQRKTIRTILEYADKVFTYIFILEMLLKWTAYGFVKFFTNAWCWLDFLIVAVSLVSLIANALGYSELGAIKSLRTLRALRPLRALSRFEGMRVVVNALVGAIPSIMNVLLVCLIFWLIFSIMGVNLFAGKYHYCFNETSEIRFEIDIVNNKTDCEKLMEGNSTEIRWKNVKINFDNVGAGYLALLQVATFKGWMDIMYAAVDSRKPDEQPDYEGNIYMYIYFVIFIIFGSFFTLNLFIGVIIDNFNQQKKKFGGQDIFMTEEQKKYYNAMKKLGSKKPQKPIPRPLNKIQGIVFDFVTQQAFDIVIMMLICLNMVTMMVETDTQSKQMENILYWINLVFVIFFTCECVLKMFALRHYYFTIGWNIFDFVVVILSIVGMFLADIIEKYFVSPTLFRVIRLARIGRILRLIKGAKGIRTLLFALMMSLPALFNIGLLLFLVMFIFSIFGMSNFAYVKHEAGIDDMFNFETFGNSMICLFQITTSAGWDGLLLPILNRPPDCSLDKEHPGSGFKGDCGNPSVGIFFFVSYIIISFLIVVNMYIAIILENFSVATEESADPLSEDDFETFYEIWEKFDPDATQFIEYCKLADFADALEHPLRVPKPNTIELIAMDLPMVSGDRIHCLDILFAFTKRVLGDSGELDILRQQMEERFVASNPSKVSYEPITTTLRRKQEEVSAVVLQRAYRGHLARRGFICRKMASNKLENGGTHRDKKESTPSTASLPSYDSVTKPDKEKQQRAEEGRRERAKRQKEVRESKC
T1 sequence (P35499 whole entry): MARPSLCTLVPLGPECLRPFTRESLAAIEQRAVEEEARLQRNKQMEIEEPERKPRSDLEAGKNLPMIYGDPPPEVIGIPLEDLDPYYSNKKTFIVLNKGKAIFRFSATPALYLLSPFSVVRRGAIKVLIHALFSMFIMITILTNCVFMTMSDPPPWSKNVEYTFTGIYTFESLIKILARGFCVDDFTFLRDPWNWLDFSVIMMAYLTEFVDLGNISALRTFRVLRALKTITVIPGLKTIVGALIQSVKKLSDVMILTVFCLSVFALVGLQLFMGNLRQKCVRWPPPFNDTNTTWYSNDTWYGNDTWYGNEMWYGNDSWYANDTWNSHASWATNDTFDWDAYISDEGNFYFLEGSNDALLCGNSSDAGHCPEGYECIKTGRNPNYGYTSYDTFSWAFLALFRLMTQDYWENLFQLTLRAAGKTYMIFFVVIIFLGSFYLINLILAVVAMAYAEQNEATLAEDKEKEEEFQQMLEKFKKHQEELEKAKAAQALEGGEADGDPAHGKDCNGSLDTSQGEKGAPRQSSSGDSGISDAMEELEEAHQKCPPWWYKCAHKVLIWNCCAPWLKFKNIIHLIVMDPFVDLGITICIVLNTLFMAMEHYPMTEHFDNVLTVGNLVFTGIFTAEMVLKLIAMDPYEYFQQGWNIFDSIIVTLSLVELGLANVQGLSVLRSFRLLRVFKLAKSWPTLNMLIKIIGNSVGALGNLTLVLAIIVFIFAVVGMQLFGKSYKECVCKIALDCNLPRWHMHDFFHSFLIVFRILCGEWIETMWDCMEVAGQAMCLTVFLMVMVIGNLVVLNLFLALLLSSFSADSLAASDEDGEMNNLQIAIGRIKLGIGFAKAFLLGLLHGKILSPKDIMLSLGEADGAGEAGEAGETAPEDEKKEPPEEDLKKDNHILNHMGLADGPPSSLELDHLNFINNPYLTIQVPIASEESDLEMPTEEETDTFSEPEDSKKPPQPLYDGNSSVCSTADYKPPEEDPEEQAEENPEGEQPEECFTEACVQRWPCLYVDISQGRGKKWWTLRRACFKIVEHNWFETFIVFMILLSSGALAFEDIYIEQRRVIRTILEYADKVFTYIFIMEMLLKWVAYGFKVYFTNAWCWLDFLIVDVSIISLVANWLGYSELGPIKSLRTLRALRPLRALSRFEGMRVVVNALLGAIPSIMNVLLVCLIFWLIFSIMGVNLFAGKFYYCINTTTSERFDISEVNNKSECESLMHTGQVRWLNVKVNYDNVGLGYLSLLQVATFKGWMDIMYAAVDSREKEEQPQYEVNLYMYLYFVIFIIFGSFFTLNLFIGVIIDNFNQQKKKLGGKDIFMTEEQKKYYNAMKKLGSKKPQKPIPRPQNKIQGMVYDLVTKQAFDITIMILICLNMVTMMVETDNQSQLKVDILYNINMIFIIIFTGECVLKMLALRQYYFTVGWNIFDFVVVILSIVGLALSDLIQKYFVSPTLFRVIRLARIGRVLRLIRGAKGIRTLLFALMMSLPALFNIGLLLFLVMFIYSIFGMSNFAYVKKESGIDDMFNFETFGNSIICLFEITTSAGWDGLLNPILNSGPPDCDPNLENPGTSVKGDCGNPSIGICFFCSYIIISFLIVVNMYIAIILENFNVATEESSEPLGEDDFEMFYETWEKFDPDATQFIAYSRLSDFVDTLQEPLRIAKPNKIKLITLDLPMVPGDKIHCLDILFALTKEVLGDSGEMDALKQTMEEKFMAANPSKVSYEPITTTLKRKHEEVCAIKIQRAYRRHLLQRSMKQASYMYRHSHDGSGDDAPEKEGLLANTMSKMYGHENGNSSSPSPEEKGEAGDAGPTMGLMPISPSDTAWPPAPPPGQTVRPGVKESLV

Take `N#Cc1cc(S(=O)(=O)Nc2cscn2)ccc1Oc1ccc(Cl)cc1-c1ccnn1C1CNC1` [SSCI-5]: the IC50 in series [1] is more than 30 µM; in series [2], 2.1 µM; in series [3], 7.4 µM. The mortality entry in series [4] (rat CV/R assay, IV infusion, doses tested) is recorded as “mortality”. The “∆ Heart Rate” value is recorded as −1.7 ± 1.3 bpm in series [4] (setting [8]), −3.7 ± 2.8 bpm in series [4] (setting [9]) and 1.0 bpm in series [4] (setting [10]). Besides, the figures for the “∆ Mean Arterial Pressure” value in series [4] (setting [8]), in series [4] (setting [9]) and in series [4] (setting [10]) were 14.0 ± 2.1 mmHg, 13.3 ± 5.5 mmHg and 5.2 mmHg, respectively. Besides, the “∆ QRS Interval” value turned out to be 1.5 ± 1.1 in series [4] (setting [8]), 4.6 ± 3.2 in series [4] (setting [9]) and 5.2 in series [4] (setting [10]). Besides, the “∆ respiratory rate” value in series [4] (setting [8]) is on record as −13.0 ± 3.4%; in series [4] (setting [9]), −10.2 ± 2.6%; in series [4] (rat, IV infusion, 60 mg/kg, 21–23 min), −100%; in series [4] (setting [10]), −15.6%. Besides, the “time to respiratory and cardiac collapse” value in series [4] (rat, infusion without ventilatory support) was not above 30 min. Moreover, in series [5], the “percent decrease in the magnitude of the phrenic nerve signal” value is listed as 76.1%. Besides, the concentration at 15 min in series [6] (read-out: Total [plasma]) was 82.7 ± 15.2 µM; in series [6] (read-out: Unbound [plasma]), 10.6 ± 1.94 µM. The concentration at 30 min in series [6] (read-out: Total [plasma]) stood at 86.2 ± 42.1 µM; in series [6] (read-out: Unbound [plasma]), 11 ± 5.39 µM. Moreover, the Papp in series [7] is 1.351 10e-6cm/s.

For the origin of these results see paper PMC9578445, “Association of respiratory failure with inhibition of NaV1.6 in the phrenic nerve” (Channels, 2022).
